Experimental data: US20240287138A1, “CYCLIC PEPTIDES FOR INHIBITING TNF RECEPTOR 1 ACTIVITY” (Merck Sharp & Dohme LLC, priority 2023, published 2024)
Numbered stars: 1 amine (or outer) side, 2 acyl side, 3 side chain; on linkers, the order of the positions; unused ones are H or OH. Square brackets hold non-standard residues; d marks the D form. Peptide text beside a SMILES is read from it. * marks the point of attachment. Trp(βS-Me,7-OMe) = COc1cccc2c([C@H](C)[C@H](N)C(=O)O)c[nH]c12; dPro(trans-4-NMe3+) = C[N+](C)(C)[C@@H]1CN[C@@H](C(=O)O)C1; Trp(1-CH2COOH) = N[C@@H](Cc1cn(CC(=O)O)c2ccccc12)C(=O)O; Phe(4-SO2NH2) = N[C@@H](Cc1ccc(S(N)(=O)=O)cc1)C(=O)O; Trp(7-CN) = N#Cc1cccc2c(C[C@H](N)C(=O)O)c[nH]c12; X27 = O=C(O)c1ccc(C[C@H](N[*:1])C(=O)[*:2])cc1F; Phe(3-CONH2) = NC(=O)c1cccc(C[C@H](N)C(=O)O)c1; Phe(4-CONH2) = NC(=O)c1ccc(C[C@H](N)C(=O)O)cc1; Phe(4-COOH) = N[C@@H](Cc1ccc(C(=O)O)cc1)C(=O)O; Trp(7-aza) = N[C@@H](Cc1c[nH]c2ncccc12)C(=O)O; Pip(5R-OH) = O=C(O)[C@@H]1CC[C@@H](O)CN1; X1 = O=C([C@@H]1CC[C@H](N[*:1])C1)[*:2]; Gly(Nα-CH2CH2CONH2) = NC(=O)CCNCC(=O)O; Pip(4-aza) = O=C(O)[C@@H]1CNCCN1; 4Pal = N[C@@H](Cc1ccncc1)C(=O)O; dHyp = O=C(O)[C@H]1C[C@H](O)CN1; Ahp(2) = CCCCC[C@H](N)C(=O)O; αMeS = C[C@](N)(CO)C(=O)O; Carboxymethyl = O=C(O)C*; Nle = CCCC[C@H](N)C(=O)O; Sar = CNCC(=O)O

Key:
[1] = target: T1, human TNFR1 extracellular domain (ECD) protein (Homo sapiens, UniProt P19438); experiment: SPR binding affinity to captured human TNFR1 ECD
T1 construct: HRV 3C protease cleavage site (C); 6His (C, cleaved yes); made in house; host or cells: Sf21 insect cells (baculovirus), secreted
T1 sequence (P19438 30-211): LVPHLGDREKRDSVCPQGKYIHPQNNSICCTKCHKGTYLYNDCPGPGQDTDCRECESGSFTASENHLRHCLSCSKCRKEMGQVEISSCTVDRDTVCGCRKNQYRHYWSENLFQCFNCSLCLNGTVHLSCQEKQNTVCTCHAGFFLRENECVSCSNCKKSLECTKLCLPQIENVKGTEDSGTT
Procedure, shortened: (§1)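 Peptides are tested against captured biotin-tagged human TNFR1 ECD, with parallel TNFR2 ECD binding to check selectivity. Buffer: 10 mM HEPES pH 7.4, 150 mM NaCl, 3 mM EDTA, 0.05% P20, 2% DMSO.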

[2] = target: T2, human TNFR2 ECD protein (Homo sapiens, UniProt P20333); experiment: SPR off-target binding (selectivity) to human TNFR2 ECD
T2 construct: HRV 3C protease cleavage site (C); 6His (C, cleaved yes); made in house; host or cells: Sf21 insect cells (baculovirus), secreted
T2 sequence (P20333 23-257): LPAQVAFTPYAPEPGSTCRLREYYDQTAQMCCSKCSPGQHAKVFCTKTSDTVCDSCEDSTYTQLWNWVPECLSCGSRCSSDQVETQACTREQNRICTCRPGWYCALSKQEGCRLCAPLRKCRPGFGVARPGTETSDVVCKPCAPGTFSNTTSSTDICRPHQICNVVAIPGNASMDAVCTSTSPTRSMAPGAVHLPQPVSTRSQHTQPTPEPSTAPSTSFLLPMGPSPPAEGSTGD
Procedure, shortened: as §1

[3] = target: T3, human soluble TNFR1 (sTNFR1) (Homo sapiens, UniProt P19438); experiment: Human sTNFR1-peptide displacement assay (LanthaScreen Eu TR-FRET binding assay)
T3 construct: made in house; host or cells: Sf21 (baculovirus)
T3 sequence (P19438 with tags, fused parts or gaps): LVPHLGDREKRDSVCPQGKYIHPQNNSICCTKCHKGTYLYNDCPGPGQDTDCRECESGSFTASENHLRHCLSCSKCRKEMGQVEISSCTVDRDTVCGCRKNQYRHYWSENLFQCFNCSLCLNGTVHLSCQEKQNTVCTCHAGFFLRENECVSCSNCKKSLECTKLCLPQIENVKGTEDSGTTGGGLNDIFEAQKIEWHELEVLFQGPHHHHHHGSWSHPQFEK
Procedure, shortened: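 Readout is the 665/615 nm TR-FRET ratio (Eu anti-His donor, streptavidin-Alexa647 acceptor), normalized to DMSO and saturating displacer, fit by Morrison-based five-parameter logistic for Kd^app. His-tagged sTNFR1 (1-211) prebound to 100 nM biotinylated peptide SEQ ID NO.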

CCCC[C@@H]1NC(=O)[C@@H]2CC[C@@H](C2)NC(=O)[C@H]([C@@H](C)c2c[nH]c3c(OC)cccc23)NC(=O)CN(C)C(=O)[C@H](Cc2ccc(C(=O)O)cc2)NC(=O)[C@H](Cc2ccc(S(N)(=O)=O)cc2)NC(=O)[C@](C)(CO)NC(=O)[C@H](Cc2c[nH]c3c(C#N)cccc23)NC(=O)[C@H](Cc2ccc(C(=O)O)cc2)NC(=O)[C@H](CC(N)=O)NC(=O)[C@H]2C[C@H](OCC(=O)O)CN2C(=O)[C@H](Cc2c[nH]c3ncccc23)NC(=O)[C@@H]2CC[C@@H](O)CN2C(=O)[C@H](Cc2ccncc2)NC1=O [SEQ ID NO. 4] (cyclo([4Pal][Pip(5R-OH)][Trp(7-aza)][dHyp](Carboxymethyl)N[Phe(4-COOH)][Trp(7-CN)][αMeS][Phe(4-SO2NH2)][Phe(4-COOH)][Sar][Trp(βS-Me,7-OMe)][X1][Nle]))
Kd [1]: 0.1 nM
Kd [2]: > 1000 nM
Kd [3]: 0.09 nM

CCCC[C@@H]1NC(=O)[C@@H]2CC[C@@H](C2)NC(=O)[C@H]([C@@H](C)c2c[nH]c3c(OC)cccc23)NC(=O)CN(C)C(=O)[C@H](Cc2ccc(C(=O)O)cc2)NC(=O)[C@H](Cc2ccc(C(N)=O)cc2)NC(=O)[C@](C)(CO)NC(=O)[C@H](Cc2c[nH]c3c(C#N)cccc23)NC(=O)[C@H](Cc2ccc(C(=O)O)c(F)c2)NC(=O)[C@H](CC(N)=O)NC(=O)[C@H]2C[C@H](O)CN2C(=O)[C@H](Cc2c[nH]c3ncccc23)NC(=O)[C@@H]2CC[C@@H](O)CN2C(=O)[C@H](Cc2ccncc2)NC1=O [SEQ ID NO. 8] (cyclo([4Pal][Pip(5R-OH)][Trp(7-aza)][dHyp]N[X27][Trp(7-CN)][αMeS][Phe(4-CONH2)][Phe(4-COOH)][Sar][Trp(βS-Me,7-OMe)][X1][Nle]))
Kd [1]: 0.08 nM
Kd [2]: > 1000 nM
Kd [3]: 0.1 nM

CCCC[C@@H]1NC(=O)[C@@H]2CC[C@@H](C2)NC(=O)[C@H]([C@@H](C)c2c[nH]c3c(OC)cccc23)NC(=O)CN(C)C(=O)[C@H](Cc2ccc(C(N)=O)cc2)NC(=O)[C@H](Cc2ccc(S(N)(=O)=O)cc2)NC(=O)[C@](C)(CO)NC(=O)[C@H](Cc2c[nH]c3c(C#N)cccc23)NC(=O)[C@H](Cc2ccc(C(=O)O)cc2)NC(=O)[C@H](CC(N)=O)NC(=O)[C@H]2C[C@H]([N+](C)(C)C)CN2C(=O)[C@H](Cc2cn(CC(=O)O)c3ccccc23)NC(=O)[C@@H]2CC[C@@H](O)CN2C(=O)[C@H](Cc2ccncc2)NC1=O [SEQ ID NO. 9] (cyclo([4Pal][Pip(5R-OH)][Trp(1-CH2COOH)][dPro(trans-4-NMe3+)]N[Phe(4-COOH)][Trp(7-CN)][αMeS][Phe(4-SO2NH2)][Phe(4-CONH2)][Sar][Trp(βS-Me,7-OMe)][X1][Nle]))
Kd [1]: 0.1 nM
Kd [2]: > 1000 nM
Kd [3]: 0.05 nM

CCCCC[C@@H]1NC(=O)[C@@H]2CC[C@@H](C2)NC(=O)[C@H]([C@@H](C)c2c[nH]c3c(OC)cccc23)NC(=O)CN(C)C(=O)[C@H](Cc2cccc(C(N)=O)c2)NC(=O)[C@H](Cc2ccc(C(N)=O)cc2)NC(=O)[C@](C)(CO)NC(=O)[C@H](Cc2c[nH]c3c(C#N)cccc23)NC(=O)[C@H](Cc2ccc(C(=O)O)cc2)NC(=O)[C@H](CC(N)=O)NC(=O)CN(CCC(N)=O)C(=O)[C@H](Cc2c[nH]c3ccccc23)NC(=O)[C@@H]2CNCCN2C(=O)[C@H](Cc2ccncc2)NC1=O [SEQ ID NO. 10] (cyclo([4Pal][Pip(4-aza)]W[Gly(Nα-CH2CH2CONH2)]N[Phe(4-COOH)][Trp(7-CN)][αMeS][Phe(4-CONH2)][Phe(3-CONH2)][Sar][Trp(βS-Me,7-OMe)][X1][Ahp(2)]))
Kd [1]: 0.08 nM
Kd [2]: > 1000 nM
Kd [3]: 0.1 nM

CCCC[C@@H]1NC(=O)[C@@H]2CC[C@@H](C2)NC(=O)[C@H]([C@@H](C)c2c[nH]c3c(OC)cccc23)NC(=O)CN(C)C(=O)[C@H](Cc2ccc(C(N)=O)cc2)NC(=O)[C@H](Cc2ccc(C(N)=O)cc2)NC(=O)[C@](C)(CO)NC(=O)[C@H](Cc2c[nH]c3c(C#N)cccc23)NC(=O)[C@H](Cc2ccc(C(=O)O)cc2)NC(=O)[C@H](CC(N)=O)NC(=O)[C@H]2C[C@H](OC)CN2C(=O)[C@H](Cc2c[nH]c3ccccc23)NC(=O)[C@@H]2CC[C@@H](O)CN2C(=O)[C@H](Cc2ccncc2)NC1=O [SEQ ID NO. 14] (cyclo([4Pal][Pip(5R-OH)]W[dHyp](Me)N[Phe(4-COOH)][Trp(7-CN)][αMeS][Phe(4-CONH2)][Phe(4-CONH2)][Sar][Trp(βS-Me,7-OMe)][X1][Nle]))
Kd [1]: 0.02 nM
Kd [2]: > 1000 nM
Kd [3]: 0.03 nM
